Data reported in the supplement of paper PMC11451515.

Tested on: NOMO1
Experiment: cell viability relative to DMSO control; higher = less cytotoxic
Conditions: 48 h
In short: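 Leukemia cells (NOMO1 or SEM, 500 cells/well; P12-Ichikawa, 1000 cells/well) were seeded in 5 μl in 1536-well plates after at least four passages of adaptation to each medium. They received library compounds in DMSO by pin dosing, 11 threefold points from 47 μM to 0.79 nM. Luminescence with CellTiter-Glo One was read after 48 h at 37°C. Viability is stated per plate relative to DMSO wells, with cell-free wells as background.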

[1] = HPLM + 10% dialyzed FBS, 0.000781 µM
[2] = HPLM + 10% dialyzed FBS, 0.00234 µM
[3] = HPLM + 10% dialyzed FBS, 0.00702 µM
[4] = HPLM + 10% dialyzed FBS, 0.0211 µM
[5] = HPLM + 10% dialyzed FBS, 0.0632 µM
[6] = HPLM + 10% dialyzed FBS, 0.19 µM
[7] = HPLM + 10% dialyzed FBS, 0.569 µM
[8] = HPLM + 10% dialyzed FBS, 1.71 µM
[9] = HPLM + 10% dialyzed FBS, 5.12 µM
[10] = HPLM + 10% dialyzed FBS, 15.4 µM
[11] = HPLM + 10% dialyzed FBS, 46.1 µM
[12] = RPMI 5 mM glucose + 10% FBS, 0.000781 µM
[13] = RPMI 5 mM glucose + 10% FBS, 0.00234 µM
[14] = RPMI 5 mM glucose + 10% FBS, 0.00702 µM
[15] = RPMI 5 mM glucose + 10% FBS, 0.0211 µM
[16] = RPMI 5 mM glucose + 10% FBS, 0.0632 µM
[17] = RPMI 5 mM glucose + 10% FBS, 0.19 µM
[18] = RPMI 5 mM glucose + 10% FBS, 0.569 µM
[19] = RPMI 5 mM glucose + 10% FBS, 1.71 µM
[20] = RPMI 5 mM glucose + 10% FBS, 5.12 µM
[21] = RPMI 5 mM glucose + 10% FBS, 15.4 µM
[22] = RPMI 5 mM glucose + 10% FBS, 46.1 µM
[23] = RPMI 5 mM glucose + 10% dialyzed FBS, 0.000781 µM
[24] = RPMI 5 mM glucose + 10% dialyzed FBS, 0.00234 µM
[25] = RPMI 5 mM glucose + 10% dialyzed FBS, 0.00702 µM
[26] = RPMI 5 mM glucose + 10% dialyzed FBS, 0.0211 µM
[27] = RPMI 5 mM glucose + 10% dialyzed FBS, 0.0632 µM
[28] = RPMI 5 mM glucose + 10% dialyzed FBS, 0.19 µM
[29] = RPMI 5 mM glucose + 10% dialyzed FBS, 0.569 µM
[30] = RPMI 5 mM glucose + 10% dialyzed FBS, 1.71 µM
[31] = RPMI 5 mM glucose + 10% dialyzed FBS, 5.12 µM
[32] = RPMI 5 mM glucose + 10% dialyzed FBS, 15.4 µM
[33] = RPMI 5 mM glucose + 10% dialyzed FBS, 46.1 µM

SMILES	cell viability [1] [%]	cell viability [2] [%]	cell viability [3] [%]	cell viability [4] [%]	cell viability [5] [%]	cell viability [6] [%]	cell viability [7] [%]	cell viability [8] [%]	cell viability [9] [%]	cell viability [10] [%]	cell viability [11] [%]	cell viability [12] [%]	cell viability [13] [%]	cell viability [14] [%]	cell viability [15] [%]	cell viability [16] [%]	cell viability [17] [%]	cell viability [18] [%]	cell viability [19] [%]	cell viability [20] [%]	cell viability [21] [%]	cell viability [22] [%]	cell viability [23] [%]	cell viability [24] [%]	cell viability [25] [%]	cell viability [26] [%]	cell viability [27] [%]	cell viability [28] [%]	cell viability [29] [%]	cell viability [30] [%]	cell viability [31] [%]	cell viability [32] [%]	cell viability [33] [%]
O=C1[O][Pt]2([NH]C3CCCCC3[NH]2)[O]C1=O (configuration not stated)	116	118	119	107	141	118	131	120	90.2	14.7	7.1	108	103	120	119	110	135	115	107	90.4	17.6	5.82	107	108	100	110	109	122	108	112	98.4	38.3	9.17
CN1C(=O)COc2c(C(=O)NC3CN4CCC3CC4)cc(Cl)cc21 (configuration not stated)	68.8	121	112	107	105	104	119	109	104	111	108	90.2	106	94.2	88.8	110	109	99	92.1	90.6	105	85.6	104	102	106	93.2	97.1	91.6	97.6	89.7	90.5	85.8	97.7
CNC(=O)c1cc(Oc2ccc(NC(=O)Nc3cc(C(C)(C)C)nn3-c3ccc4ncccc4c3)c(F)c2)ccn1	123	121	121	128	127	170	135	155	157	156	122	–	–	–	–	–	–	–	–	–	–	–	119	124	125	140	151	154	160	158	155	164	123
CCC1=C(C)CN(C(=O)NCCc2ccc(S(=O)(=O)NC(=O)N[C@H]3CC[C@H](C)CC3)cc2)C1=O	97.4	93.3	105	102	104	112	101	108	87	83.3	116	86.3	86.4	91.1	98.4	88.3	100	90.3	89.3	95.4	91.4	95.3	82.2	97.7	97.6	92.3	99.5	93	96.3	94.1	99.3	92.5	104
Cc1c(OCC(F)(F)F)ccnc1C[S+]([O-])c1nc2ccccc2[nH]1 (configuration not stated)	100	100	107	96.6	108	118	122	97.7	113	122	110	110	114	105	113	105	108	119	103	118	108	117	102	111	111	109	113	113	115	120	128	113	123
C[C@@]12OC(=O)[C@@]1(NC(=O)[C@@H]2CCCl)[C@@H](O)[C@H]\3CCC\C=C3	109	114	104	104	97.9	51.4	9.1	6.95	4.84	2.62	1.53	86.2	94.4	104	103	100	66.2	11	6.39	7.27	3.01	1.15	90.2	110	106	96.8	102	62.7	11	5.88	4.34	2.85	1.4
COC1=CC=C(C=C1)C/2=C/OC3=CC(=CC=C3C2=O)O	108	125	114	119	116	119	119	109	83.1	67.9	43.1	123	111	121	115	132	114	106	118	102	101	71.1	122	120	113	106	133	121	101	105	111	104	98.4
OC1=C(C=CC=C1)C2=CC=C(C=C2)C3=CSC4=C3C(=C(/C#N)C(=O)N4)/O	119	119	120	102	112	110	119	118	126	105	102	–	–	–	–	–	–	–	–	–	–	–	117	123	131	139	122	112	122	119	114	123	109
